For assay [1], the system named is DU145 (prostate cancer cell). Briefly: Measurement of cellular proliferation, DU145 cells. It is filed as cell-based. As to conditions: DU 145, 48 hours. As for the experimental part:
(§1) Measurement of cellular proliferation: LNCaP cells at 2.5×10^4/well or PC3 cells at 5×10^4/well, both in a final volume of 100 μl, were plated in triplicate in standard flat bottom 96 well tissue culture plates in the presence of drug or vehicle (DMSO). Unless otherwise indicated, cells were grown for 48 hours at 37° C. in a CO2 incubator. Relative cell growth was determined with the CellTiter 96 aqueous cell proliferation assay (Promega, Madison, Wis.) as described by the manufacturer using an automated plate reader. Results were calculated in a blinded fashion and are means of triplicate determinations.
(§2) For the 48 hour proliferation, cells were cultured with calcium channel antagonists or without calcium channel antagonists. The IC50 values of the calcium channel antagonists were determined.
(§3) Using the measurement cell proliferation assay described hereinabove, the cell lines Jurkat, LNCap (prostate cancer cell), PC-31 (prostate cancer cell), DU145 (prostate cancer cell), MDA-468 (breast cancer cell), MDA-36 (Breast cancer cell), MCF-7 (breast cancer cell), MIA PaCa-2 (pancreatic cancer cell), Hep G2 (liver cancer cell), A549 (non-small cell lung cancer cells), NCI H460 (non-small cell lung cancer cells), HT-29 (colon cancer cell), HCT-116 (colon cancer cell) and SK OV-3 (ovarian cancer cell) were cultured in the presence of TH-1177, TH-1205, TH-1201, TH-2109, TH-2029, TH-2043, TN-2085 and TH-2279.

The subject of assay [2] is MCF-7 (breast cancer cell). Description: Measurement of cellular proliferation, MCF-7 cells. It is filed as cell-based. As to conditions: MCF-7, 48 hours. As for the experimental part:
as §1, §2, §3

The subject of assay [3] is HT-29 (colon cancer cell). Briefly: Measurement of cellular proliferation, HT-29 cells. The conditions noted are these: HT-29, 48 hours. It is filed as cell-based. The protocol:
as §1, §2, §3

The subject of assay [4] is Ca2+ entry in LNCaP cells. Description: Measurement of intracellular Ca2+ concentration (Ca2+ entry), LNCaP cells. It is filed as cell-based, human. The protocol: (§4) Cells were incubated in growth media containing 1 μM of the acetoxy-methyl ester of the Ca^2+-sensitive fluorescent dye indo-1 (indo-1/AM, Molecular Probes, Eugene, Oreg.) for 1 hour at 37° C. Cells were washed three times in buffer A (10 mM HEPES, pH 7.4, 1 mM MgCl2, 3 mM KCl, 1 mM CaCl2, 140 mM NaCl, 0.1% glucose, 1% fetal bovine serum) and suspended to a final concentration of 10^6/ml. Prior to stimulation, cells were warmed to 37° C. Prior to stimulation, cells were also incubated with drug, calcium channel antagonists and the IC50 values were determined. Changes in [Ca^2+] were monitored in an SLM 8100C spectrofluorometer (SLM/Aminco, Urbana, Ill.) using previously published methods, Haverstick, et al. (1998) Cell Calcium, 23: 361-368; Densmore, et al. (1996) Am. J. Physiol., 271:C1494-1503, incorporated herein by reference.
(§5) Calcium influx into the cell is suitably stimulated using either (1) a physiological ligand or (2) an endoplasmic reticulum (ER) ATPase inhibitor. Preferably, a physiological ligand is used to stimulate calcium influx into the cell.
Endoplasmic Reticulum (ER) ATPase inhibitor, as used herein, is any compound which stimulates the release of calcium from the endoplasmic reticulum into the cytoplasm, which, in turn, activates calmodulin, which, in turn, activates calcium entry into the cell (for review of ER ATPase inhibitors, see Thastrup, O, Agents and Actions (1990), 29:8-15; Inesi and Sagara, Archives of Biochem. and Biophys., 298:313-7 and Darby, et al., Biological Signals (1993), 2:293-304). Preferred ER ATPase inhibitors include cyclopiazonic acid (available from Sigma, St. Louis, Mo.) and thapsigargin (available from Sigma).
TH-1177 blocked capacitative Ca^2+ entry in human prostate cancer cells. In electrically non-excitable cells, Ca^2+ influx is triggered by release of Ca^2+ from its internal storage depot by a phenomenon that has been called “capacitative”Ca^2+ entry (Putney, J. W., Jr. (1986) Cell Calcium, 7:1-12; Haverstick, et al. (1993) Mol. Biol. Cell, 4: 173-184; Kohn, et al. Proc. Natl. Acad. Sci. USA, 92: 1307-1311, incorporated herein by reference). Capacitative entry can be initiated by treatment of cells with thapsigargin. Thapsigargin inhibits the Ca^2+-ATPase of the endoplasmic reticulum allowing uncompensated leak of Ca^2+ from this compartment into the cytosol thereby causing Ca^2+ entry in the absence of engagement of a specific receptor. (Thastrup, et al. (1990) Proc. Natl. Acad. Sci. USA, 87: 2466-2470; Takemura, et al. (1989) J. Biol. Chem. 264: 12266-12271, incorporated herein by reference).
The P2 purinergic receptor is linked to activation of the Ca^2+ entry pathway in many types of cells including prostate cancer cells (Fang, et al. (1992) J. Clin. Invest. 89: 191-196). […]

The subject of the next assay is Ca2+ entry in PC3 cells. Description: Measurement of intracellular Ca2+ concentration (Ca2+ entry), PC3 cells. It is filed as cell-based, human. As for the experimental part:
as §4, §5
Ir. the experiment depicted in FIG. 4A, TH-1177 was added before the cells were stimulated with ATP. […] By 70 s after ATP addition, release of Ca^2+ from the internal storage pool was largely over (for example, see FIG. 5 below) and the maintenance of elevations of [Ca^2+]i over baseline was dependent on Ca entry from the extracellular compartment. […] Therefore, TH-1177 interacts with the Ca^2+ influx pathway.
The efficiency of TH-1177 at blocking Ca^2+ entry was assessed by comparison to the effect of chelation of extracellular Ca^2+ with EGTA, which was considered 100% inhibition of Ca^2+ entry.
The data presented above provide that TH-1177 inhibited the stimulated increase in [Ca^2+]i by blockage of Ca^2+ entry. […] This increase represented release of Ca^2+ from the internal storage pool. Addition of TH-1177 had no effect on the size of this change in [Ca^2+]i. […]

Each structure is given as a SMILES string.

In the case of `COc1ccc(CCN2CCC[C@H]2COC(c2ccccc2)c2ccc(Cl)cc2)cc1` (stereo partly shown) [TH-1177], the IC50 in assay [1] was 19 µM; in assay [2] it was 21 µM; in assay [3] it was roughly 100 µM; in assay [4] (EGTA chelation of extracellular Ca2+ considered 100% inhibition, read-out: IC50 for blocking Ca2+ entry, LNCaP cells) it was 3 µM; in the assay on Ca2+ entry in PC3 cells (EGTA chelation of extracellular Ca2+ considered 100% inhibition, read-out: IC50 for blocking Ca2+ entry, PC3 cells), 16 µM. For the same compound, in assay [4] (LNCaP, 300 nM thapsigargin, drug added before stimulus), the “Effect on increase in [Ca2+]i stimulated by thapsigargin” value is “dose dependent inhibition”. In addition, the “Effect on rise in [Ca2+]i stimulated by ATP” value in assay [4] (LNCaP, 1 mM ATP, 10 μM TH-1177 added prior) is reported as “inhibited”. Further, the “Effect on release of Ca2+ from the internal storage pool” value is listed as “no effect” in assay [4] (LNCaP, EGTA in medium, 1 mM ATP) and “no effect” with Ca2+ entry in PC3 cells (PC3, EGTA in medium, 1 mM ATP). In addition, the “Effect on increase in [Ca2+]i stimulated by ATP” value with Ca2+ entry in PC3 cells (PC3, 1 mM ATP, drug added before) is recorded as “concentration dependent inhibition”.

The values are drawn from patent US6946475B1, “Anticancer calcium channel blockers” (University of Virginia Patent Foundation, priority 1999, dated 2005).
